Results taken from patent US9464326B2, “Total and phosphorylated IL-1 receptor-associated kinase-1 and IL-1 receptor-associated kinase-4 as a biomarker for cancer progression and chemotherapy resistance” (University of Maryland, Baltimore, priority 2012, dated 2016).

Key:
[1] = test system: CCRF-CEM cells; assay: Cell cycle analysis (PI staining); type: cell-based, human; settings: 5 uM
Method: Control and treated cells were collected, fixed and stained with propidium iodide (100 μg/mL) in PBS containing sodium citrate (1 mg/mL), Triton-X-100 (0.1%), and RNAse (20 μg/mL) for 30 min. Data were acquired on a BD FACScan flow cytometer using CellQuest software (BD Immunocytometry Systems, San Jose, Calif.) and analyzed by using FlowJo software (Tree Star, Inc., Ashland, Oreg.).
It was investigated whether the reduced proliferation that we observed with IRAK-1,-4 inhibitor (FIG. 11 and FIG. 12) was a result of cell cycle arrest or apoptosis. CCRF-CEM cells were treated with IRAK-1,-4 inhibitor for 24, 48, 72, and 96 hours.

[2] = test system: patient T-ALL samples; assay: SA-β-gal activity in patient T-ALL samples from treated NSG mice; type: in vivo; settings: p<0.05, FIG. 15C
Method: Analysis of senescence-associated β-galactosidase (SA-β-gal) activity was performed using the 96-Well Cellular Senescence Assay Kit (Cell Biolabs, San Diego, Calif.) as per the manufacturer's protocol. In brief, cells were washed with PBS, lysed with cell lysis buffer, and incubated at 37° C. with SA-β-gal substrate for 1 hour. A quantitative Cellular Senescence Assay Kit (SA-β-gal, Fluorometric) (Cell Biolabs, San Diego, Calif.) was used for more quantitative measurement of SA-β-gal activity by flow cytometry. Briefly, control and treated CCRF-CEM cells were incubated with 1× cell pretreatment solution in culture medium for 2 hrs, and the fluorogenic substrate was then directly added into the culture. After 4 hrs, the cells were washed and analyzed by flow cytometry.
CCRF-CEM (2×10^6) cells were injected intravenously (i.v.) into female NOD.Cg-Prkdc^scid Il2rg^tm1WJl/SzJ IL2RG (NSG) mice (Jackson Laboratories, Bar Harbor, Me.). […] In some experiments mice were injected i.v. with TLR1-TLR2 ligand (2.5 μg) two days after injecting cells. […] The numbers of T-ALL cells in the bone marrow, spleen, liver, and in circulation were determined by staining cells with anti-human CD7 and/or CD5. […]

[3] = test system: Primary T-cells Non-Act; assay: Proliferation (3H-thymidine) of non-activated primary T-cells; type: cell-based, human; settings: 3H-thymidine uptake, 72 h
Text: CCRF-CEM, CEM/C1, CEM/C2, CEM-C7, Jurkat, Loucy, Molt-4, HSB-2, SUP-T1, Hut 78, HH, Hut 102, MO, and H9 T-leukemia and T-lymphoma cell lines were purchased from the American Type Culture Collection (Manassas, Va., USA). All of the cell lines were initially expanded and cryopreserved within one month of receipt. Cells were typically used for 6 months at which time a fresh vial of cryopreserved cells was used. Total T cells from healthy donors were isolated via negative selection followed by positive selection using a CD3+ selection kit (Invitrogen, Carlsbad, Calif.). T cells were isolated from patients with T-ALL bone marrow or peripheral blood samples containing more than 70% leukemia cells using a CD2+ isolation kit (STEMCELL Technologies, Vancouver, Canada). All tissues were collected under institutional IRB-approved protocols and all participants gave written informed assent/consent. For in vitro experiments, T-ALL cells were cultured in AIM-V medium supplemented with 20% human AB serum in the presence of recombinant human stem cell factor (50 ng/mL; Amgen, Thousand Oaks, Calif.), insulin (20 nM; Sigma-Aldrich, St Louis, Mo., USA) and IL-7 (50 ng/mL; R&D Systems, Minneapolis, Minn., USA). […]
Cells were cultured in a 96-well plate (Corning Costar, Corning, N.Y., USA) with various concentrations of TLR ligands 1-9, starting at 10 μg/ml, in a final volume of 200 ul. […] After this time point, cells were harvested with a Packard Filter-Mate-96 cell harvester (Perkin Elmer, Waltham, Mass., USA) and counted on Packard Top Count-NXT (Perkin Elmer, Waltham, Mass., USA). Results were expressed as average counts per minute (cpm). […] Forty-eight hours later, proliferation (±SD) was determined by ^3H-thymidine incorporation. Alternatively, apoptosis was measured by flow cytometry after staining cells with Annexin-V (BD Pharmingen, San Diego, Calif., USA) and propidium iodide (Sigma). Cell number was counted under microscopy by staining cells with trypan blue. […]

[4] = test system: Loucy; assay: Proliferation (3H-thymidine) of Loucy; type: cell-based, human
Text: (§1) CCRF-CEM, CEM/C1, CEM/C2, CEM-C7, Jurkat, Loucy, Molt-4, HSB-2, SUP-T1, Hut 78, HH, Hut 102, MO, and H9 T-leukemia and T-lymphoma cell lines were purchased from the American Type Culture Collection (Manassas, Va., USA). All of the cell lines were initially expanded and cryopreserved within one month of receipt. Cells were typically used for 6 months at which time a fresh vial of cryopreserved cells was used. Total T cells from healthy donors were isolated via negative selection followed by positive selection using a CD3+ selection kit (Invitrogen, Carlsbad, Calif.). T cells were isolated from patients with T-ALL bone marrow or peripheral blood samples containing more than 70% leukemia cells using a CD2+ isolation kit (STEMCELL Technologies, Vancouver, Canada). All tissues were collected under institutional IRB-approved protocols and all participants gave written informed assent/consent. For in vitro experiments, T-ALL cells were cultured in AIM-V medium supplemented with 20% human AB serum in the presence of recombinant human stem cell factor (50 ng/mL; Amgen, Thousand Oaks, Calif.), insulin (20 nM; Sigma-Aldrich, St Louis, Mo., USA) and IL-7 (50 ng/mL; R&D Systems, Minneapolis, Minn., USA). In other experiments, protein lysate was collected using the Full Moon Biosystems (Sunnyvale, Calif., USA) buffer prior to protein examination by western blot or protein array.
(§2) Cells were cultured in a 96-well plate (Corning Costar, Corning, N.Y., USA) with various concentrations of TLR ligands 1-9, starting at 10 μg/ml, in a final volume of 200 ul. TLR ligands were diluted 2-fold. Cell lines (25-40×10^3/well) were cultured for 54 hours, whereas fresh patient-derived T-ALL cells (200×10^3/well) were cultured for 30 hours prior to adding [^3H]-thymidine for 18 hours. After this time point, cells were harvested with a Packard Filter-Mate-96 cell harvester (Perkin Elmer, Waltham, Mass., USA) and counted on Packard Top Count-NXT (Perkin Elmer, Waltham, Mass., USA). Results were expressed as average counts per minute (cpm). In some experiments CCRF-CEM cells were pre-treated with TLR1-TLR2 ligand (Pam3CysK4; 2.5 ug/ml) for 48 hrs, washed, and then cultured in the presence of varying concentrations of FBS. Forty-eight hours later, proliferation (±SD) was determined by ^3H-thymidine incorporation. Alternatively, apoptosis was measured by flow cytometry after staining cells with Annexin-V (BD Pharmingen, San Diego, Calif., USA) and propidium iodide (Sigma). Cell number was counted under microscopy by staining cells with trypan blue. […]

[5] = test system: Primary T-cells Activated; assay: Proliferation (3H-thymidine) of activated primary T-cells; type: cell-based, human
Text: as §1
Cells were cultured in a 96-well plate (Corning Costar, Corning, N.Y., USA) with various concentrations of TLR ligands 1-9, starting at 10 μg/ml, in a final volume of 200 ul. TLR ligands were diluted 2-fold. Cell lines (25-40×10^3/well) were cultured for 54 hours, whereas fresh patient-derived T-ALL cells (200×10^3/well) were cultured for 30 hours prior to adding [^3H]-thymidine for 18 hours. After this time point, cells were harvested with a Packard Filter-Mate-96 cell harvester (Perkin Elmer, Waltham, Mass., USA) and counted on Packard Top Count-NXT (Perkin Elmer, Waltham, Mass., USA). Results were expressed as average counts per minute (cpm). In some experiments CCRF-CEM cells were pre-treated with TLR1-TLR2 ligand (Pam3CysK4; 2.5 ug/ml) for 48 hrs, washed, and then cultured in the presence of varying concentrations of FBS. Forty-eight hours later, proliferation (±SD) was determined by ^3H-thymidine incorporation. Alternatively, apoptosis was measured by flow cytometry after staining cells with Annexin-V (BD Pharmingen, San Diego, Calif., USA) and propidium iodide (Sigma). Cell number was counted under microscopy by staining cells with trypan blue.
The following TLR ligands were purchased from Invivogen (San Diego, Calif., USA): tripalmitoyl-S-(bis(palmitoyloxy)propyl)-Cys-Ser-(Lys)3-Lys (TLR1-2); Poly I:C (TLR3); ultrapure S. Minnesota Lipopolysaccharide (TLR4); S. typhimurium flagellin (TLR5); FSL-1 (TLR2/6); Imiquimod (TLR7); ssRNA40/Lyovec (TLR8); CpG-ODN 2006 (TLR9).

[6] = test system: CEM-C1; assay: Proliferation (3H-thymidine) of CEM-C1; type: cell-based, human
Text: as §1, §2

| Molecule | decrease of percentage of cells in S phase ([1]; FIG. 14C) [%] | percentage of cells in G0/G1 phase ([1]; after 96 hours) [%] | percentage of cells in G0/G1 phase ([1]; within 24 hours (from 25%)) [%] | SA-β-gal activity [2] | Proliferative effects of TLR ligands [3] | Proliferative effects of TLR ligands ([4]; 3H-thymidine uptake, 72 h) | TLR ligand concentration in parentheses below the symbol ([4]; no unit in table (μg/ml)) | Proliferative effects of TLR ligands ([5]; Primary T-cells, Activated, 3H-thymidine uptake, 72 h) | TLR ligand concentration in parentheses below the symbol ([5]; Primary T-cells, Activated, no unit in table (μg/ml)) | effect on proliferation / T-cell expansion (in words) ([5]; T cells from healthy donors, together with T cell receptor stimulation, FIG. 1A) | Proliferative effects of TLR ligands ([6]; 3H-thymidine uptake, 72 h) | TLR ligand concentration in parentheses below the symbol ([6]; no unit in table (μg/ml)) |
| --- | --- | --- | --- | --- | --- | --- | --- | --- | --- | --- | --- | --- |
| O=C(Nc1nc2ccccc2n1CCN1CCOCC1)c1cccc([N+](=O)[O-])c1 [IRAK-1,-4 inhibitor] | ~30 | 50 | 43 | increased SA-β-gal activity | – | – | – | – | – | – | – | – |
| tripalmitoyl-S-(bis(palmitoyloxy)propyl)-Cys-Ser-(Lys)3-Lys [Pam3Cysk4] | – | – | – | – | ∘ | + (enhanced proliferation by 25% or greater) | (2.5) | + (enhanced proliferation by 25% or greater) | (10) | enhanced proliferation | + (enhanced proliferation by 25% or greater) | (2.5) |
